Values after ≈ are worked out from the molar mass of the structure shown.

Holding throughout (test): Agar dilution MIC in DST agar (Ericsson and Sherris)
Holding throughout (assay type): cell-based

One assay deals with Proteus morganii 2359. The settings on record: for MIC Prot. 2359: in vitro; for MIC: Morganella morganii, 2359, in vitro, read-out: MIC Prot. 2359. An excerpt:
(§1) Die antibiotische Aktivität der Testverbindungen in vitro wurde durch die Agarverdünnungsmethode nach Ericsson, H.M., und Sherris, S.C., 1971, Acta Path. Microb. Scand. Section B, Suppl. No. 217, Bd. 1-90, in DST Agara ermittelt. Die gefundenen, das Wachstum der Testorganismen noch hemmenden Minimalkonzentrationen (MIC = minimum inhibiting concentrations) werden in Mikrogramm pro Milliliter (µg/ml) für die geprüften Verbindungen in der Tabelle 1 angegeben.

Another assay has as its system Proteus morganii 1518. Particulars: for MIC Prot. 1518: in vitro; for MIC: Morganella morganii, 1518, in vitro, read-out: MIC Prot. 1518.
Excerpt: as §1

A further assay relates to Escherichia coli 205. The settings on record: for MIC Esch. 205: in vitro; for MIC: Escherichia coli, 205, in vitro, read-out: MIC Esch. 205.
Excerpt: as §1

The test system of assay [1] is Staphylococcus aureus 10B. Particulars: in vitro; for MIC: Staphylococcus aureus, 10B, read-out: MIC Staph. 10B.
Excerpt: as §1

In assay [2] the test system is Salmonella Typhimurium 277. The settings on record: in vitro; for MIC: Salmonella enterica, TYPHIMURIUM, read-out: MIC Salm. 277.
Excerpt: as §1

The subject of assay [3] is Staphylococcus aureus 2999. The settings on record: for MIC Staph. 2999: in vitro; for MIC: Staphylococcus aureus, 2999, in vitro, read-out: MIC Staph. 2999.
Excerpt: as §1

Assay [4] has as its system Pseudomonas aeruginosa K 799/61. Particulars: for MIC Pseu. 799: in vitro, agar dilution, DST agar; for MIC: Pseudomonas aeruginosa, K799/61, read-out: MIC Pseu. 799.
Excerpt: as §1
(In agar dilution, organisms are placed on agar that contains the substance at set levels.)

Another assay has as its system Escherichia coli 2018. The settings on record: for MIC Esch. 2018: in vitro; for MIC: Escherichia coli, 2018, in vitro, read-out: MIC Esch. 2018.
Excerpt: as §1

On to “4-[4-(2-Tetrahydrofurylmethyl)-piperazinyl]-imidazolo-[4,5-c]rifamycin SV [Verbindung 61]”, for which the “MIC Prot. 2359” value against Proteus morganii 2359 amounted to 4 µg/mL. Besides, the “MIC Prot. 1518” value against Proteus morganii 1518 came out at 4 µg/mL. In the assay with Escherichia coli 205, the “MIC Esch. 205” value turned out to be 16 µg/mL. Further, the “MIC Staph. 10B” value in assay [1] amounted to 0.005 µg/mL. Besides, in assay [2], the “MIC Salm. 277” value came out at 32 µg/mL. The “MIC Staph. 2999” value in assay [3] turned out to be 0.005 µg/mL. For the same molecule, the “MIC Pseu. 799” value in assay [4] amounted to 32 µg/mL. Moreover, in the assay with Escherichia coli 2018, the “MIC Esch. 2018” value amounted to 4 µg/mL.

In the case of “4-[4-(l,3-Dimethylpropyl)-piperazinyl]-imidazolo[4,5-c]-rifamycin SV [Verbindung 43]”, the “MIC Prot. 2359” value against Proteus morganii 2359 came to 8 µg/mL. The “MIC Prot. 1518” value with Proteus morganii 1518 came out at 8 µg/mL. In addition, the “MIC Esch. 205” value in the assay with Escherichia coli 205 turned out to be 8 µg/mL. The “MIC Staph. 10B” value in assay [1] worked out at 0.01 µg/mL. In addition, the “MIC Salm. 277” value in assay [2] worked out at 32 µg/mL. Also, in assay [3], the “MIC Staph. 2999” value came to 0.005 µg/mL. In addition, the “MIC Pseu. 799” value in assay [4] was found to be 16 µg/mL. In addition, in the assay on Escherichia coli 2018, the “MIC Esch. 2018” value turned out to be 4 µg/mL.

On to “4-{4-[2-(1,3- Dioxolan-2-yl)-ethyl]-piperazinyl}-imidazolo-[4,5-c]rifamycin SV [Verbindung 62]”, for which the “MIC Prot. 2359” value in the assay on Proteus morganii 2359 was found to be 8 µg/mL. The “MIC Prot. 1518” value against Proteus morganii 1518 was 8 µg/mL. Also, in the assay with Escherichia coli 205, the “MIC Esch. 205” value amounted to 32 µg/mL. Moreover, the “MIC Staph. 10B” value in assay [1] was determined as 0.02 µg/mL. For the same molecule, the “MIC Salm. 277” value in assay [2] stood at 128 µg/mL. Further, the “MIC Staph. 2999” value in assay [3] came out at 0.02 µg/mL. Moreover, in assay [4], the “MIC Pseu. 799” value stood at 32 µg/mL. Besides, the “MIC Esch. 2018” value against Escherichia coli 2018 was found to be 32 µg/mL.

Usually MIC stands for the lowest concentration found to suppress growth. With `CCCN(CCC)c1nc2c3c(O)c4c(O)c(C)c5c(c4c2[nH]1)C(=O)C(C)(OC=CC(OC)C(C)C(OC(C)=O)C(C)C(O)C(C)C(O)C(C)C=CC=C(C)C(=O)N3)O5` (stereo not drawn) [Verbindung 7, 4-Dipropylamino-imidazolo[4,5-c]rifamycin SV], the MIC in the assay on Proteus morganii 2359 was found to be 8 µg/mL (≈ 9.74 µM); with Proteus morganii 1518, 8 µg/mL (≈ 9.74 µM); in the assay on Escherichia coli 205, 8 µg/mL (≈ 9.74 µM); in assay [1], 0.005 µg/mL (≈ 0.00609 µM); in assay [2], 16 µg/mL (≈ 19.5 µM); in assay [3], 0.005 µg/mL (≈ 0.00609 µM). Also, the minimum inhibitory concentration (MIC) (in assay [4]; in the assay on Escherichia coli 2018) was 8 µg/mL (≈ 9.74 µM) each time.

As for `COC1C=COC2(C)Oc3c(C)c(O)c4c(O)c(c5nc(N(C)C(C)C)[nH]c5c4c3C2=O)NC(=O)C(C)=CC=CC(C)C(O)C(C)C(O)C(C)C(OC(C)=O)C1C` (stereo not drawn) [Verbindung 8, 4-(N-Isopropyl-N-methylamino)-imidazolo[4,5-c]rifamycin SV], the MIC with Proteus morganii 2359 was 8 µg/mL (≈ 10.1 µM); in the assay on Proteus morganii 1518, 8 µg/mL (≈ 10.1 µM); in the assay on Escherichia coli 205, 8 µg/mL (≈ 10.1 µM); in assay [1] it was 0.01 µg/mL (≈ 0.0126 µM); in assay [2] it was 32 µg/mL (≈ 40.4 µM); in assay [3], 0.01 µg/mL (≈ 0.0126 µM). Also, the minimum inhibitory concentration (MIC) (in assay [4]; in the assay on Escherichia coli 2018) was 8 µg/mL (≈ 10.1 µM) throughout.

On to `COC1C=COC2(C)Oc3c(C)c(O)c4c(O)c(c5nc(N(C)C6CCCC6)[nH]c5c4c3C2=O)NC(=O)C(C)=CC=CC(C)C(O)C(C)C(O)C(C)C(OC(C)=O)C1C` (stereo not drawn) [Verbindung 10, 4-(N-Cyclopentyl-N-methylamino)-imidazolo[4,5-c]rifamycin SV], for which the MIC in the assay with Proteus morganii 2359 stood at 4 µg/mL (≈ 4.88 µM); in the assay on Proteus morganii 1518, 4 µg/mL (≈ 4.88 µM); in the assay with Escherichia coli 205 it was 4 µg/mL (≈ 4.88 µM); in assay [1], 0.005 µg/mL (≈ 0.00611 µM); in assay [2], 16 µg/mL (≈ 19.5 µM); in assay [3], 0.005 µg/mL (≈ 0.00611 µM). The MIC came out at 8 µg/mL (≈ 9.77 µM) in assay [4] and 4 µg/mL (≈ 4.88 µM) in the assay on Escherichia coli 2018.

Consider `CCCN(CC1CC1)c1nc2c3c(O)c4c(O)c(C)c5c(c4c2[nH]1)C(=O)C(C)(OC=CC(OC)C(C)C(OC(C)=O)C(C)C(O)C(C)C(O)C(C)C=CC=C(C)C(=O)N3)O5` (stereo not drawn) [Verbindung 11, 4-(N-Cyclopropylmethyl-N-propylamino)-imidazolo[4,5-c]rifamycin SV], for which the minimal inhibitory concentration (MIC) in the assay with Proteus morganii 2359 amounted to 8 µg/mL (≈ 9.6 µM); in the assay on Proteus morganii 1518, 2 µg/mL (≈ 2.4 µM); in the assay on Escherichia coli 205, 8 µg/mL (≈ 9.6 µM); in assay [1], 0.01 µg/mL (≈ 0.012 µM); in assay [2], 32 µg/mL (≈ 38.4 µM); in assay [3], 0.01 µg/mL (≈ 0.012 µM). The MIC (in assay [4]; with Escherichia coli 2018) was 8 µg/mL (≈ 9.6 µM) throughout.

For the molecule `CO[C@H]1/C=C/O[C@@]2(C)Oc3c(C)c(O)c4c(O)c(c5[nH]c(N(C)C6CCN(C)CC6)nc5c4c3C2=O)NC(=O)/C(C)=C\C=C\[C@H](C)[C@H](O)[C@@H](C)[C@@H](O)[C@@H](C)[C@H](OC(C)=O)[C@@H]1C` [Verbindung 13], the MIC is 16 µg/mL (≈ 18.9 µM) in the assay on Proteus morganii 2359; 16 µg/mL (≈ 18.9 µM) in the assay with Proteus morganii 1518; 8 µg/mL (≈ 9.43 µM) in the assay with Escherichia coli 205; 0.05 µg/mL (≈ 0.059 µM) in assay [1]; 32 µg/mL (≈ 37.7 µM) in assay [2]; 0.05 µg/mL (≈ 0.059 µM) in assay [3]. Moreover, the MIC (in assay [4]; with Escherichia coli 2018) was 8 µg/mL (≈ 9.43 µM) each time.

In the case of `CCN(CCO)c1nc2c([nH]1)c1c(O)c3c(O)c(C)c4c(c32)C(=O)[C@@](C)(O/C=C/[C@H](OC)[C@@H](C)[C@@H](OC(C)=O)[C@H](C)[C@H](O)[C@H](C)[C@@H](O)[C@@H](C)/C=C/C=C(/C)C(=O)N1)O4` [Verbindung 14, 4-[N-Ethyl-N-(2-hydroxyethyl)-amino]-imidazolo[4,5-c]rifamycin SV], the MIC amounted to 16 µg/mL (≈ 19.8 µM) with Proteus morganii 2359; 16 µg/mL (≈ 19.8 µM) with Proteus morganii 1518; 8 µg/mL (≈ 9.89 µM) with Escherichia coli 205; 0.05 µg/mL (≈ 0.0618 µM) in assay [1]; 32 µg/mL (≈ 39.6 µM) in assay [2]; 0.01 µg/mL (≈ 0.0124 µM) in assay [3]. The MIC (in assay [4]; in the assay on Escherichia coli 2018) was 16 µg/mL (≈ 19.8 µM) throughout.

`COC(CN(C)c1nc2c([nH]1)c1c(O)c3c(O)c(C)c4c(c32)C(=O)[C@@](C)(O/C=C/[C@H](OC)[C@@H](C)[C@@H](OC(C)=O)[C@H](C)[C@H](O)[C@H](C)[C@@H](O)[C@@H](C)/C=C/C=C(/C)C(=O)N1)O4)OC` [Verbindung 15, 4-[N-(2,2-Dimethoxyethyl)-N-methylamino]-imidazolo[4,5-c]-rifamycin SV]: the MIC with Proteus morganii 2359 was 4 µg/mL (≈ 4.77 µM); in the assay with Proteus morganii 1518 it was 8 µg/mL (≈ 9.54 µM); in the assay with Escherichia coli 205 it was 8 µg/mL (≈ 9.54 µM); in assay [1], 0.005 µg/mL (≈ 0.00596 µM); in assay [2] it was 32 µg/mL (≈ 38.1 µM); in assay [3] it was 0.005 µg/mL (≈ 0.00596 µM). In addition, the values for the MIC (in assay [4]; in the assay with Escherichia coli 2018) were 16 µg/mL (≈ 19.1 µM) and 8 µg/mL (≈ 9.54 µM), respectively.

Take `COCCN(CCOC)c1nc2c([nH]1)c1c(O)c3c(O)c(C)c4c(c32)C(=O)[C@@](C)(O/C=C/[C@H](OC)[C@@H](C)[C@@H](OC(C)=O)[C@H](C)[C@H](O)[C@H](C)[C@@H](O)[C@@H](C)/C=C/C=C(/C)C(=O)N1)O4` [Verbindung 16, 4-[N-Di-(2-methoxyethyl)-amino]-imidazolo[4,5-c]rifamycin SV]: the MIC amounted to 4 µg/mL (≈ 4.69 µM) with Proteus morganii 2359; 2 µg/mL (≈ 2.34 µM) in the assay on Proteus morganii 1518; 8 µg/mL (≈ 9.38 µM) with Escherichia coli 205; 0.01 µg/mL (≈ 0.0117 µM) in assay [1]; 32 µg/mL (≈ 37.5 µM) in assay [2]; 0.01 µg/mL (≈ 0.0117 µM) in assay [3]. Besides, the MIC (in assay [4]; in the assay with Escherichia coli 2018) was 8 µg/mL (≈ 9.38 µM) throughout.

As to `CO[C@H]1/C=C/O[C@@]2(C)Oc3c(C)c(O)c4c(O)c(c5[nH]c(N(C)CCN(C)C)nc5c4c3C2=O)NC(=O)/C(C)=C\C=C\[C@H](C)[C@H](O)[C@@H](C)[C@@H](O)[C@@H](C)[C@H](OC(C)=O)[C@@H]1C` [Verbindung 17, 4-[N-Methyl-N-(2-dimethylaminoethyl)-amino]-imidazolo-[4,5-c]rifamycin SV], the MIC with Proteus morganii 2359 was determined as 32 µg/mL (≈ 38.9 µM); in the assay with Proteus morganii 1518, 64 µg/mL (≈ 77.9 µM); with Escherichia coli 205 it was 32 µg/mL (≈ 38.9 µM); in assay [1] it was 0.005 µg/mL (≈ 0.00608 µM); in assay [2], 64 µg/mL (≈ 77.9 µM); in assay [3], 0.005 µg/mL (≈ 0.00608 µM). Besides, the minimal inhibitory concentration (MIC) (in assay [4]; with Escherichia coli 2018) was 64 µg/mL (≈ 77.9 µM) in each case.

(Values after patent EP0049683A2, “Imidazo-rifamycines, process for their preparation, pharmaceutical preparations containing them and their use” (CIBA-GEIGY AG, priority 1980, dated 1982).)
